Reference: ChEMBL document CHEMBL3046512, “Flubendiamide, a Novel Insecticide Highly Active against Lepidopterous Insect Pests” (J Pestic Sci, 2005)
Activity calls are given as the source filed them. The calls are words filed in the database; no cut-off is given here.

Columns and labels:
[1] = system: Plutella xylostella; assay: Insecticidal activity against third-instar larvae of Plutella xylostella (diamondback moth) in cabbage leaf disk after 4 to 7 days by leaf dipping method; type: functional, organism-based
[2] = system: Spodoptera litura; assay: Insecticidal activity against fifth-instar larvae of Spodoptera litura in cabbage leaf disk after 4 to 7 days by leaf dipping method; type: functional, organism-based
[3] = system: Spodoptera litura; assay: Insecticidal activity against sixth-instar larvae of Spodoptera litura assessed as sustained body contraction at 2.4 ug/larvae after 24 hr; type: functional, organism-based
[4] = system: Plutella xylostella; assay: Insecticidal activity against third-instar larvae of synthetic pyrethroid-resistant Plutella xylostella (diamondback moth) in cabbage leaf disk after 4 to 7 days by leaf dipping method; type: functional, organism-based
[5] = system: Aphidoletes aphidimyza; assay: Toxicity in larvae of Aphidoletes aphidimyza after 2 days by spraying on food and insect method; type: organism-based; settings: in vivo, 48 h
[6] = system: Agrotis segetum; assay: Insecticidal activity against two to third-instar larvae of Agrotis segetum in cabbage leaf; type: functional, organism-based
[7] = system: Pardosa pseudoannulata; assay: Toxicity in adult of Pardosa pseudoannulata after 4 days by insect dipping method; type: organism-based; settings: in vivo, 96 h
[8] = system: Adoxophyes honmai; assay: Insecticidal activity against fourth-instar larvae of Adoxophyes honmai in tea leaf; type: functional, organism-based
[9] = system: Coccinella septempunctata brucki; assay: Toxicity in adult of Coccinella septempunctata brucki after 4 days by insect dipping method; type: organism-based; settings: in vivo, 96 h
[10] = system: Spodoptera litura; assay: Insecticidal activity against sixth-instar larvae of Spodoptera litura assessed as sustained body contraction at 0.24 ug/larvae after 24 hr; type: functional, organism-based
[11] = system: Encarsia formosa; assay: Toxicity in adult Encarsia formosa after 2 days by dry film method; type: organism-based; settings: in vivo, 48 h
[12] = system: Harmonia axyridis; assay: Toxicity in adult of Harmonia axyridis after 4 days by insect dipping method; type: organism-based; settings: in vivo, 96 h
[13] = system: Spodoptera litura; assay: Insecticidal activity against fifth-instar larvae of Spodoptera litura assessed as thickening and shortening without convulsion at 100 mg/l after 24 hr; type: functional, organism-based
[14] = system: Aphidius colemani; assay: Toxicity in adlult of Aphidius colemani after 2 days by dry film method; type: organism-based; settings: in vivo, 48 h
[15] = system: Spodoptera litura; assay: Insecticidal activity against fifth-instar larvae of Spodoptera litura assessed as gradual contraction of insect body at 100 mg/l after 24 hr; type: functional, organism-based
[16] = system: Phytoseiulus persimilis; assay: Toxicity in adult of Phytoseiulus persimilis after 2 days by spraying on food and insect method; type: organism-based; settings: in vivo, 48 h
[17] = system: Hellula undalis; assay: Insecticidal activity against third-instar larvae of Hellula undalis in cabbage leaf; type: functional, organism-based
[18] = system: Pieris rapae crucivora; assay: Insecticidal activity against second to third-instar larvae of Pieris rapae crucivora; type: functional, organism-based
[19] = system: Misumenops; assay: Toxicity in adult of Misumenops tricuspidatus after 4 days by insect dipping method; type: organism-based; settings: in vivo, 96 h
[20] = system: Helicoverpa armigera; assay: Insecticidal activity against Helicoverpa armigera; type: functional, organism-based
[21] = system: Neoseiulus cucumeris; assay: Toxicity in adlult of Neoseiulus cucumeris after 2 days by spraying on food and insect method; type: organism-based; settings: in vivo, 48 h
[22] = system: Cotesia glomerata; assay: Toxicity in adult Cotesia glomerata after 2 days by dry film method; type: organism-based; settings: in vivo, 48 h
[23] = system: Chilo suppressalis; assay: Insecticidal activity against third-instar larvae of Chilo suppressalis (rice stem borer) […]; type: functional, organism-based
[24] = system: Plutella xylostella; assay: Insecticidal activity against third-instar larvae of insecticide-resistant Plutella xylostella (diamondback moth) in cabbage leaf disk after 4 to 7 days by leaf dipping method; type: functional, organism-based
[25] = system: Homona magnanima; assay: Insecticidal activity against fourth-instar larvae of Homona magnanima in tea leaf; type: functional, organism-based
[26] = system: Orius strigicollis; assay: Toxicity in adult of Orius strigicollis after 2 days by spraying on food and insect method; type: organism-based; settings: in vivo, 48 h
[27] = system: Chrysoperla carnea; assay: Toxicity in larvae of Chrysoperla carnea after 2 days by spraying on food and insect method; type: organism-based; settings: in vivo, other, 48 h
[28] = system: Autographa nigrisigna; assay: Insecticidal activity against third-instar larvae of Autographa nigrisigna in cabbage leaf; type: functional, organism-based
[29] = system: Plutella xylostella; assay: Insecticidal activity against third-instar larvae of benzoylphenylurea-resistant Plutella xylostella (diamondback moth) in cabbage leaf disk after 4 to 7 days by leaf dipping method; type: functional, organism-based
[30] = system: Plutella xylostella; assay: Insecticidal activity against third-instar larvae of carbamate-resistant Plutella xylostella (diamondback moth) in cabbage leaf disk after 4 to 7 days by leaf dipping method; type: functional, organism-based
[31] = system: Plutella xylostella; assay: Insecticidal activity against third-instar larvae of organophosphate-resistant Plutella xylostella (diamondback moth) in cabbage leaf disk after 4 to 7 days by leaf dipping method; type: functional, organism-based

Cc1cc(C(F)(C(F)(F)F)C(F)(F)F)ccc1NC(=O)c1cccc(I)c1C(=O)NC(C)C
EC50 [1]: 0.1 mgAi/L | EC50 [2]: 0.3 mgAi/L

Cc1cc(OC(F)(F)F)ccc1NC(=O)c1cccc(I)c1C(=O)NC(C)C
EC50 [1]: 0.3 mgAi/L | EC50 [2]: 1 mgAi/L

Cc1cc(Cl)ccc1NC(=O)c1cccc(Br)c1C(=O)NC(C)C
EC50 [1]: 1 mgAi/L | EC50 [2]: 10 mgAi/L

Cc1cc(Cl)ccc1NC(=O)c1ccccc1C(=O)NC(C)C
EC50 [1]: 3 mgAi/L | EC50 [2]: 10 mgAi/L

Cc1cc(Cl)ccc1NC(=O)c1cccc([N+](=O)[O-])c1C(=O)NC(C)C
EC50 [1]: 10 mgAi/L | EC50 [2]: 10 mgAi/L

Cc1cc(Cl)ccc1NC(=O)c1cccc(Cl)c1C(=O)NC(C)C
EC50 [1]: 1 mgAi/L | EC50 [2]: 10 mgAi/L

Cc1cc(Cl)ccc1NC(=O)c1ccc(Cl)cc1C(=O)NC(C)C
EC50 [1]: 5 mgAi/L | EC50 [2]: > 500 mgAi/L

Cc1cc(Cl)ccc1NC(=O)c1cc(Cl)ccc1C(=O)NC(C)C
EC50 [1]: 50 mgAi/L | EC50 [2]: > 500 mgAi/L

Cc1cc(Cl)ccc1NC(=O)c1c(Cl)cccc1C(=O)NC(C)C
EC50 [1]: 10 mgAi/L | EC50 [2]: > 500 mgAi/L

Cc1cc(Cl)ccc1NC(=O)c1cccc(F)c1C(=O)NC(C)C
EC50 [1]: 1 mgAi/L | EC50 [2]: > 500 mgAi/L

Cc1cc(Cl)ccc1NC(=O)c1cccc(I)c1C(=O)NC(C)C
EC50 [1]: 0.3 mgAi/L | EC50 [2]: 3 mgAi/L

Cc1c(Cl)cccc1NC(=O)c1cccc(I)c1C(=O)NC(C)C
EC50 [1]: 3 mgAi/L | EC50 [2]: 10 mgAi/L

Cc1ccc(Cl)cc1NC(=O)c1cccc(I)c1C(=O)NC(C)C
EC50 [1]: 3 mgAi/L | EC50 [2]: 10 mgAi/L

COc1ccc(NC(=O)c2cccc(I)c2C(=O)NC(C)C)c(C)c1
EC50 [1]: 10 mgAi/L | EC50 [2]: 30 mgAi/L

Cc1cc(C(F)(C(F)(F)F)C(F)(F)F)ccc1NC(=O)c1cccc(I)c1C(=O)NC(C)(C)C
EC50 [1]: 0.3 mgAi/L | EC50 [2]: 0.3 mgAi/L

CC(=O)NCC(C)(C)NC(=O)c1c(I)cccc1C(=O)Nc1ccc(C(F)(C(F)(F)F)C(F)(F)F)cc1C
EC50 [2]: 0.1 mgAi/L

CC(C)[C@@]1(O)[C@@H](OC(=O)c2cc[nH]c2)[C@@]2(O)[C@]3(C)C[C@@]4(O)O[C@@]5([C@H](O)[C@@H](C)CC[C@]35O)[C@@]2(O)[C@@]41C
Activity [3]: Active

CC1(C)C(/C=C(\Cl)C(F)(F)F)C1C(=O)OC(C#N)c1cccc(Oc2ccccc2)c1 (stereo unspecified) [CYHALOTHRIN]
EC50 [4]: 869 mgAi/L | EC50 [1]: 0.24 mgAi/L

Cc1cc(C(F)(C(F)(F)F)C(F)(F)F)ccc1NC(=O)c1cccc(I)c1C(=O)NC(C)(C)CS(C)(=O)=O [FLUBENDIAMIDE]
EC30 [5]: > 100 mgAi/L | EC50 [1]: 0.001 mgAi/L | EC50 [6]: 0.18 mgAi/L | EC30 [7]: > 100 mgAi/L | EC50 [8]: 0.38 mgAi/L | EC30 [9]: > 200 mgAi/L | Activity [10]: Active | EC30 [11]: > 400 mgAi/L | EC50 [2]: 0.03 mgAi/L | EC30 [12]: > 200 mgAi/L | Activity [13]: Active | EC30 [14]: > 400 mgAi/L | Activity [15]: Active | EC30 [16]: > 200 mgAi/L | EC50 [17]: 0.01 mgAi/L | EC50 [18]: 0.03 mgAi/L | EC30 [19]: > 200 mgAi/L | Activity [20]: Active | EC30 [21]: > 200 mgAi/L | EC30 [22]: > 100 mgAi/L | EC50 [23]: < 0.01 mgAi/L | EC50 [24]: 0.002 mgAi/L | EC50 [25]: 0.58 mgAi/L | EC30 [26]: > 100 mgAi/L | EC30 [27]: > 100 mgAi/L | EC50 [28]: 0.02 mgAi/L

O=C(NC(=O)c1c(F)cccc1F)Nc1ccc(Oc2ccc(C(F)(F)F)cc2Cl)cc1F [FLUFENOXURON]
EC50 [1]: 0.05 mgAi/L | EC50 [29]: 233 mgAi/L

CNC(=O)ON=C(C)SC [METHOMYL]
EC50 [1]: 14.5 mgAi/L | EC50 [30]: 287 mgAi/L

CCCSP(=S)(OCC)Oc1ccc(Cl)cc1Cl (stereo unspecified) [PROTHIOFOS]
EC50 [31]: 24.2 mgAi/L | EC50 [1]: 3.78 mgAi/L
